According to patent publication US20210403415A1, “COMPOUNDS AND METHODS TO ATTENUATE TUMOR PROGRESSION AND METASTASIS” (THE TRUSTEES OF INDIANA UNIVERSITY, priority 2018, published 2021):
“Also recorded” adds a separate entry of the source. Read-outs that look alike come from different tables or passages of the source.

Key:
TEAD4 Cys367Ser mutant = target: T1, TEAD4 Cys367Ser mutant (Homo sapiens, UniProt Q15561, C367S); assay: Fluorescence polarization, GST-TEAD4 Cys367Ser mutant with FAM-Yap60-99 peptide; type: binding; conditions: 24 h at 4° C.
T1 construct: TEAD4 (217-434) Cys367Ser mutant and Yap1 (Full-length) were expressed as GST-fusion proteins; made in house; host or cells: E. coli BL-21 (DE3), pGEX-6P-1
T1 sequence (Q15561 217-434 C367S): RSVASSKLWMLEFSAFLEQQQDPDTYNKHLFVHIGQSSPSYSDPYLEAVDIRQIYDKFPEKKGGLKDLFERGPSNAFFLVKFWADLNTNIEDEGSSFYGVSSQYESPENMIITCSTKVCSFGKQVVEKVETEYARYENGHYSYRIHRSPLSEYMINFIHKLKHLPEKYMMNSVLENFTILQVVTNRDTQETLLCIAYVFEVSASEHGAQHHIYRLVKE
Experimental: (§1) GST-TEAD4, GST-TEAD4 Cys367Ser mutant or HIS-TEAD2 interaction with Yap1 was investigated using a fluorescently-labeled peptide (FAM-Yap60-99), consisting of FAM-labeled TEAD-binding peptide fragment of Yap1 (FAM-[…] TVPMCLRKLPASFCKPP), which has a disulfide bridge (American Peptide, Sunnyvale, Calif.). Addition of FAM-Yap60-99 to the TEAD was followed by measurement of changes in polarization. 40 μL of 125 nM GST-TEAD4 WT or GST-TEAD4 Cys367Ser in assay buffer (PBS with 0.01% v/v Triton-X100) or 40 μL of 64 nM HIS-TEAD2 was added to a 384-well black polystyrene plate (Cat. No. 262260; Nunc, Roskilde, Denmark) and incubated with 5 μL of […] serially diluted compounds in assay buffer supplemented with 20% v/v DMSO for 24 h at 4° C. Finally, 5 μL of 160 nM FAM-Yap60-99 peptide was added, the plate centrifuged, and the polarization was measured on an Envision Multilabel Plate Reader (PerkinElmer, Waltham, Mass.) using a filter set with excitation and emission wavelengths of 485 and 535 nm, respectively. Percent inhibition was calculated as relative to a minimum inhibition control, which is without compound, and a maximum inhibition control, which is without a TEAD.

[1] = tested on: TEAD4 transcriptional activity; assay: TEAD4 luciferase reporter assay (CTGF promoter) in HEK-293 cells; type: cell-based
Experimental: HEK-293 cells plated at 2.4×10^4 cells/well in a 96-well microplate were transfected after 24 hours with the a pGL3.1 reporter containing the CTGF promoter and a plasmid encoding TK-Renilla luciferase in combination with control vectors or vectors that express Yap1 and TEAD4. […] Luciferase activity was measured according to the Dual-Glo luciferase assay (Promega) instructions using a Biotek Synergy Neo2 plate reader. Relative luciferase activity represents the ratio of firefly/renilla luminescence values.

human astrocytes = assay: MTS viability of normal astrocytes; type: cell-based; conditions: 10 μM, 72 h
Experimental: Hippo signaling promotes tumor growth and invasion in a range of cancers including GBM. We investigated the effects of compounds 1, 2, and 5 on GBM cell viability using patient-derived GBM43 cells that were grown as three-dimensional spheroids (FIG. 8A). […] The potency of compounds 2 and 6 were compared to temozolomide, which is the standard of care for patients with glioblastoma. […] FIG. 11 illustrates the following: human astrocytes cells were plated 24 h before treatment in collagen I coated 96-well plates in Dulbecco's modified Eagle's medium, supplemented with 20 μg/mL insulin, 5 μg/mL N-acetylcysteine, 10% fetal bovine serum, 10 μM hydrocortisone and antibiotics; then treated with DMSO or TED-347 at indicated concentrations for 72 h at 37° C. and 5% CO2 in a humidified incubator. Stock MTS (Promega) solution (20 μL per 100 μL medium) was added to all wells of an assay, and plates were incubated at 37° C. for 4 h, and read on a BioTek Synergy 2 reader, using a test wavelength of 490 nm; mean±s.d.; n=2 replicates.

CTGF transcript levels = assay: qRT-PCR of CTGF transcript in GBM43 cells; type: cell-based, human; conditions: FIG. 8C
TEAD4 = TEAD4 (Homo sapiens, UniProt Q15561); assay: Covalent streptavidin pull down of myc-TEAD4 from HEK293 cell lysates; type: cell-based; parameters: expressed in transfected cells; host or cells: HEK293; conditions: higher concentrations, with compound 9
Sequence of TEAD4 (Q15561 whole entry): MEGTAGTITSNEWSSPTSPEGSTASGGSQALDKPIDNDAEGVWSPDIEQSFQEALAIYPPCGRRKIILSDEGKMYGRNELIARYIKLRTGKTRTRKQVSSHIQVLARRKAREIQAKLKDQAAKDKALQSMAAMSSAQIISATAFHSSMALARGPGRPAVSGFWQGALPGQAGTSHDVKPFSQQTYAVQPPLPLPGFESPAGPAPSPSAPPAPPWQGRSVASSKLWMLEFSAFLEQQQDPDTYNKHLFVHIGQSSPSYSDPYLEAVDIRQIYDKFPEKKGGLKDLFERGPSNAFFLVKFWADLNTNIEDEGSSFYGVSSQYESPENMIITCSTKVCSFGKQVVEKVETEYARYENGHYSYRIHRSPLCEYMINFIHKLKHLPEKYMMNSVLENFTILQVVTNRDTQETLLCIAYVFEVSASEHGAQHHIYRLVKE
Experimental: HEK293 cells transfected with the myc-TEAD4 construct were grown for 48 h and then treated with DMSO or with 25 μM of compound 2 for an additional 48 h. Cells were then harvested in lysis buffer (50 mM Tris-HCl, pH 7.3, 150 mM NaCl, 0.5 mM EDTA, 1% Triton X-100, PhosSTOP phosphatase inhibitor cocktail, and EDTA-free protease inhibitors cocktail). Cell lysates containing 2 mg of protein were incubated with the indicated compounds or DMSO for 24 h. Extracts were then incubated with Dynabeads M-280 Streptavidin (Sigma-Aldrich) for 2 h at 4° C. Dynabeads were then washed and bound proteins were denatured and eluted according to the manufacturer's instructions. Relative levels of myc-TEAD4 from each complex were measured by immunoblot analysis with the anti-c-Myc antibody (1:5,000, Sigma-Aldrich).

TEAD4.Yap1 interaction [2] = target: T2, TEAD4.Yap1 interaction (Homo sapiens, UniProt Q15561); assay: Fluorescence polarization, GST-TEAD4 with FAM-Yap60-99 peptide; type: binding; parameters: TEAD4 (217-434), TEAD4 (217-434) Cys367Ser mutant and Yap1 (Full-length) were expressed as GST-fusion proteins; made in house; host or cells: E. coli BL-21 (DE3), pGEX-6P-1; conditions: for inhibition / maximum inhibition of TEAD4.Yap1 interaction: 24 h incubation at 4° C.; for t1/2^∞ (half-life of inactivation): corresponding to kinact
T2 sequence (Q15561 217-434): as the sequence (Q15561 217-434 C367S) above, with S151C counted along it
Experimental: as §1
For the determination of the inhibition efficiency kinact/K1, the protein compound incubation time was varied between […], prior to the addition of the FAM-Yap60-99 peptide and fluorescence polarization measurements. The progressive decrease in TEAD activities were plotted against time for all 10 concentrations ([…]) of the compounds and the observed rate of inhibition (kobs) was calculated by fitting a simple exponential function.
The observed rate of inhibition was then plotted against the concentration of the compound and a […] function kobs=kinact[Inhibitor]/K1+[Inhibitor] was fitted to determine the kinact and K1 values.

TEAD4.Yap1 interaction [3] = target: T2, TEAD4.Yap1 interaction; assay: as above; type: binding; parameters: TEAD4 (217-434), TEAD4 (217-434) Cys367Ser mutant and Yap1 (Full-length) were expressed as GST-fusion proteins; made in house; host or cells: E. coli BL-21 (DE3), pGEX-6P-1; conditions: 0.5, 6, 24, 48 h incubation at 4° C., 0.1-100 μM

reversibility of inhibition after dialysis (TEAD4.Yap1 interaction [2]; 50 μM, 24 h at 4° C., then dialyzed against buffer 24 h at 4° C.)	inhibition / maximum inhibition of TEAD4.Yap1 interaction (TEAD4.Yap1 interaction [2]) [%]	maximum inhibition of TEAD4 (TEAD4.Yap1 interaction [2]; 48 h incubation at 4° C.) [%]	t1/2^∞ (half-life of inactivation) (TEAD4.Yap1 interaction [2]) [h]	kinact (TEAD4.Yap1 interaction [3]; read-out: maximum rate of inactivation (kinact) (converted)) [s⁻¹]	kinact (TEAD4.Yap1 interaction [3]; read-out: rate of inactivation kinact (converted)) [s⁻¹]	Compound	inhibition of TEAD4 Cys367Ser mutant binding to the peptide (TEAD4 Cys367Ser mutant)	reduction in reporter activity ([1]; 5 μM, 48 h)	reporter activity ([1]; 10 μM, 48 h)	TEAD transcriptional activity ([1]; 24 h)	effect on cell viability of non-transformed normal astrocytes (human astrocytes)	CTGF transcript levels versus vehicle (CTGF transcript levels)	competition with compound 9 for binding to TEAD4 (TEAD4)
irreversible inhibitor	53	80	18.2	1.06e-05		O=C(CCl)c1ccccc1Nc1cccc(C(F)(F)F)c1 [Compound 2, 2-chloro-1-(2-((3-(trifluoromethyl)phenyl)amino)phenyl)ethanone]	did not inhibit	over 70%	complete loss of reporter activity	Less activity is observed at 24 h; also recorded: inhibits TEAD transcriptional activity in a concentration-dependent manner	did not show any effect	suppressed CTGF transcript levels	compete with compound 9 for binding to TEAD4
	81		14.3		1.36e-05	O=C(CCl)c1ncccc1Nc1cccc(C(F)(F)F)c1 [Compound 5, 2-chloro-1-(3-((3-(trifluoromethyl)phenyl)amino)pyridin-2-yl)ethanone]	also inhibited the TEAD4 Cys367Ser mutant					suppressed CTGF transcript levels	compete with compound 9 for binding to TEAD4
